The record followed here is US11801304B2, “Formulated and/or co-formulated liposome compositions containing TFGB antagonist prodrugs useful in the treatment of cancer and methods thereof” (Nammi Therapeutics, Inc., priority 2020, dated 2023).

The nature of this data set: Solubility in ethanol when preparing stock solution. The format is physicochemical. Particulars: stock solution 20 mg/ml prepared in acetonitrile instead. How it is done: In another experiment, a liposome comprising the TB4 prodrug (denoted LNP-TB4) was synthesized in the following manner. Briefly, In the first step, a lipid stock solution of POPC (1-palmitoyl-2-oleoyl-glycero-3-phosphocholine), CHOL, and DSPE-PEG, was prepared in ethanol (20 mg/ml) separately. […] The of lipid mixture of POPC, CHOL, TB4+Stearic Acid and DSPE-PEG was mixed together at a molar ratio of 51:29:16.5:3.5, and subsequently diluted with ethanol to get a total lipid concentration of 10 mg/ml. This lipid mixture was heated at 55-60 degree Centigrade using the heating block attachment in the microfluidizer. Similarly, the aqueous phase containing 1 mM PBS buffer was also preheated at 55-60 degree centigrade before passing through the microfluidics cartridge at the flow rate of 5:1 (aqueous:organic phase, lipid mixture). The solvent was removed using dialysis membrane of cut off 12 KDa size (Sigma Aldrich) against DI water for at least 24 hrs. The Dialysis water was changed at least 5 times during the period of 24 hrs. to maximize the removal of the solvent. After the removal of the solvent, the LNP-TB4 was concentrated according to the need using Amicon centrifugal filtration device (cut off size 10 KDa, at 3000 g).
In another experiment, a liposome comprising the TB4 prodrug (denoted LNP-TB4) was co-formulated with ID3 and synthesized in the following manner. […]

As for `CCCCCCCCCCCCCCCCCC(=O)OCOC(=O)N(C(=O)c1ccc(-c2cc(-c3c[nH]nc3-c3ccccn3)ccn2)cc1)C1CCOCC1` [TB4 prodrug], the “solubility in ethanol (in words)” value is reported as “not soluble in ethanol”.
